Results from the METLIN SMRT retention time set (Domingo-Almenara et al. 2019).

Assay: gradient 5% acetonitrile 3 min, to 50% in 2 min, to 85% in 15 min, held 3 min, 100 µL/min
Conditions: column: Zorbax Extend-C18 2.1 x 50 mm; eluents: water / acetonitrile, 0.1% formic acid
Method in brief: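 Mixtures of ~100 pure standards were chromatographed on a Zorbax Extend-C18 column (2.1 × 50 mm, 1.8 μm) at 100 μL/min using water and acetonitrile, each with 0.1% formic acid. Detection used a quadrupole time-of-flight mass spectrometer in positive and negative ionization mode, and data collection spanned 3 months. Retention time was obtained from adduct peaks picked computationally and each checked manually.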

| Compound | RP-LC retention time [s] |
| --- | --- |
| Cc1cc(OCC(O)Cn2c(C3CC(=O)N(C(C)(C)C)C3)nc3ccccc32)cc(C)c1Cl (stereo not given) | 878 |
| CN1CCN(CCCNC(=O)c2ccc(CS(=O)c3cccc(Cl)c3)o2)CC1 (stereo not given) | 527 |
| O=C(NCc1ccc(Cl)cc1)C1CCN(C(=O)C2Sc3ccccc3NC2=O)CC1 (stereo not given) | 765 |
| Cc1ccc(-c2noc(-c3ccc(=O)n(Cc4ccc(Cl)cc4)c3)n2)cc1 | 1230 |
| Cc1ccc2[nH]c(=O)nc(-c3ccccc3)c2c1 | 648 |
| Cc1ccccc1-c1nc(-c2ccc3nncn3c2)no1 | 872 |
| CN(C(=O)Cn1cnc2nc3c(cc2c1=O)CCCC3)c1ccccc1F | 722 |
| Cc1ccc(C2=NC3(CCN(C(=O)c4c[nH]c5ccccc45)CC3)ON2)cc1 | 769 |
| COc1cc(OC)cc(N2N=NC3C(=O)N(c4ccc(F)cc4)C(=O)C32)c1 (stereo not given) | 907 |
| O=C(CCn1nnc2ccccc2c1=O)NCC1CCS(=O)(=O)C1 (stereo not given) | 585 |
| CN1C(=O)C2CCCCN2c2ccc(C(=O)N3CCN(c4ccccn4)CC3)cc21 (stereo not given) | 603 |
| Cn1c(=O)sc2cc(S(=O)(=O)N3CCC(C(=O)NCc4ccc(F)cc4)CC3)ccc21 | 818 |
| COc1cccc(CNC(=O)CN2C(=O)C3CCCCN3c3ccc(S(=O)(=O)N(C)C)cc32)c1 (stereo not given) | 887 |
| CC1CCN(S(=O)(=O)N2CCC(C(=O)N3CCCC(Cc4nncn4CC4CC4)C3)CC2)CC1 (stereo not given) | 678 |
| Cc1ccc(CNS(=O)(=O)c2cc(-c3nc(C(C)(C)C)cs3)cs2)cc1C | 1350 |
| O=C(Cn1c(=O)c2cccn2c2ccc(F)cc21)NCC1CCCO1 (stereo not given) | 703 |
| COc1cc(-c2nnc(-c3cccc(S(=O)(=O)N4CCOCC4)c3)o2)cc(OC)c1OC | 852 |
| CCN(Cc1ccccc1)C(=O)C1CCCN(S(=O)(=O)c2ccc3c(c2)CCCC(=O)N3)C1 (stereo not given) | 821 |
| O=C(Nc1ccc(F)cc1)c1cnc(-c2ccc(F)cc2)nc1-c1ccncc1 | 898 |
| O=C(NC1CCCCC1)C1CCN(c2cn[nH]c(=O)c2)C1 (stereo not given) | 614 |
| O=C(Nc1ccccc1C(F)(F)F)N1CCN(c2nc3c(F)cc(F)cc3s2)CC1 | 942 |
| COC(=O)c1sccc1S(=O)(=O)N1CCN(S(=O)(=O)C2CC2)CC1 | 717 |

| Compound | RP-LC retention time [s] |
| --- | --- |
| COc1ccc(NC(=O)NC2CCN(c3cc(N4CCCC4)cnn3)C2)c(C)c1 (stereo not given) | 626 |
| O=C(NCCCn1c(-c2ccncc2)nc2cccnc21)Nc1cccc(C(F)(F)F)c1 | 725 |
| CCOC(=O)c1cccc(NC(=O)C2CCN(S(=O)(=O)c3ccc4[nH]c(=O)ccc4c3)CC2)c1 | 768 |
| COC(=O)c1[nH]c2c(c1C)C(=O)CC(c1ccccc1)C2 (stereo not given) | 860 |
| Cc1ccc(Oc2cccc(C(N)=O)c2)nn1 | 559 |
| COCC1CN(C)CC12CCN(Cc1cccc(OC)n1)CC2 (stereo not given) | 567 |
| O=C(NC1CCCCCC1)c1ccc(CN2C(=O)C3CCCN3C(=O)c3ccccc32)cc1 (stereo not given) | 818 |
| CCN(CC)CCNC(=O)C1CCN(c2ccc(-c3cccs3)nn2)CC1 | 556 |
| COc1ccccc1CN[C@@H]1CCCN[C@@H]1c1ccccc1 | 598 |
| COc1ccc(NC(=O)CN2CCc3[nH]c4ccc(OC)cc4c(=O)c3C2)c(OC)c1 | 609 |
| Cc1ccccc1Nc1c(-c2ccc(N(C)C)cc2)nc2cnccn12 | 833 |
| O=C(CN1C(=O)CCc2cc(Br)ccc21)Nc1ccccc1 | 889 |
| CCOc1cccc(-c2noc(-c3nnn(Cc4nc(-c5ccccc5OC)oc4C)c3C)n2)c1 | 1190 |
| Cc1ccccc1S(=O)(=O)N1CCC2(CC1)NCCN=C2NCc1ccc(Cl)cc1 | 741 |
| CCCn1ccc2oc(C)c(C(=O)N3CCN(c4ccc(OC)cc4)CC3)c2c1=O | 707 |
| O=C(NCCc1csc(C2CCCN(C(=O)C3CCCO3)C2)n1)C1CC1 (stereo not given) | 627 |
| Cc1ccc(S(=O)(=O)Nc2ccc(-c3cn4ccccc4n3)cc2)cc1 | 628 |
| CCC(=O)N1c2ccc(S(=O)(=O)N3CCCCC3)cc2CC1C(=O)NCCCc1ccccc1 (stereo not given) | 977 |
| CC(C)Cc1ccc(S(=O)(=O)N(CCN2CCCCC2C)CC(=O)N2CCNCC2)cc1 (stereo not given) | 621 |
| Cc1nn(-c2ccc(-c3ccccc3)nn2)c(C)c1S(=O)(=O)NCc1ccc(F)cc1F | 990 |
| CS(=O)(=O)N(CC(=O)NCc1ccc2c(c1)OCCCO2)Cc1ccc(Cl)cc1 | 889 |

More lines, now with the values ahead:

| RP-LC retention time [s] | Compound |
| --- | --- |
| 880 | COc1ccc(NC(=O)N2CCCC2C(=O)Nc2ccc(C)c(Cl)c2)cc1 (stereo not given) |
| 903 | CCOC(=O)CC(=O)CSc1nc2ccsc2c(=O)n1Cc1ccc(F)cc1 |
| 908 | CN(CCc1noc(-c2ccc(Cl)cc2)n1)C(=O)c1ccc(C#N)cc1 |
| 624 | CNC(=O)c1nc(C(C)(C)NC(=O)c2ccoc2)nc2c1OCO2 |
| 849 | Cc1cc2c(cc1S(=O)(=O)N1CCCC1C(=O)Nc1ccc(F)cc1Cl)OC(C)C(=O)N2 (stereo not given) |
| 706 | COc1ccc(NC(=O)C2CC(=O)N(c3ccc4oc(C)nc4c3)C2)cc1 (stereo not given) |
| 675 | Cc1ccc(S(=O)(=O)NCCn2c(C)cnc2C2CCC2)c(C)c1 |
| 1080 | O=C(Nc1ccsc1-c1nnc(C2CC2)o1)c1ccoc1 |
| 800 | Cc1ccc(NC(=O)Cn2c(C)nc3onc(C)c3c2=O)c(C)c1 |
| 726 | COc1cc(NC(=O)CSc2nc3nc(C)cc(C)n3n2)cc(OC)c1 |
| 875 | O=C(Cn1nc(C(=O)N2CCCC2)c2ccccc21)Nc1cccc(Cl)c1 |
| 852 | COc1ccc(OCC(=O)Nc2ccc3c(c2)CCCN3C(=O)C2CC2)cc1 |
| 817 | O=C(c1cc(F)ccc1F)N1CCN(C(=O)c2nnn3c2COC(c2ccccc2)C3)CC1 (stereo not given) |
| 1050 | CCCN1C(=O)COc2ccc(-c3noc(-c4ccc(C(F)(F)F)cc4)n3)cc21 |
| 873 | CCn1c(=O)n(CC)c2cc(S(=O)(=O)c3ccc(C)cc3)c(NC(=O)C3CC3)cc21 |
| 819 | Cc1ccc(CN2C(=O)NC3(CCN(C(=O)c4ccc5c(c4)OCO5)CC3)C2=O)cc1 |
| 725 | COc1ccc(OC)c(NC(=O)COc2nc(C)nc3ccccc23)c1 |
| 597 | CCNC(=O)N1CC(c2nc(-c3cccnc3)no2)C2(CCOCC2)C1 (stereo not given) |
| 859 | COc1cc2c(cc1C(=O)NCCc1c[nH]c3ccccc13)OCCCO2 |
| 793 | Cc1cc(=O)n(CC(=O)Nc2ccc(Br)cc2)c(N2CCC(C)CC2)n1 |
| 1020 | CC(=O)Oc1ccccc1C1=NN(C(C)=O)C(c2ccc(Cl)cc2)O1 (stereo not given) |
| 888 | CC1=C(c2ccc(C)c(C)c2)S(=O)(=O)N=C1N1CCCN(C(=O)NC(C)(C)C)CC1 |
